Measurements published in patent publication US10435361B2, “Kinase inhibitors” (Topivert Pharma Limited, priority 2013, dated 2019).
pIC50: −log10 of the molar value. Like-named read-outs stand apart in the source and are kept apart here.

Tests used:
BDF1 mice = assay: TNBS-induced colitis in mice; type: in vivo; settings: conducted over 2 days; vehicle corn oil/transcutol/maisine/cremophor ELP
Procedure: Non-fasted, 10-12 week old, male BDF1 mice are dosed by oral gavage twice daily with either vehicle (5 mL/kg), reference item (Budesonide 2.5 mg/kg) or test compound (1 or 5 mg/kg) one day before (Day −1) stimulation of the inflammatory response by treatment with 2,4,6-trinitrobenzenesulphonic acid (TNBS) (15 mg/mL in 50% ethanol/50% saline). On Day 0 of the study TNBS (200 μL) is administered intra-colonically via a plastic catheter with BID dosing of the vehicle, reference or test compound continuing for 2 or 4 days. During the study, animals are weighed every day and stool observations are made and recorded as a score, based on stool consistency. At the time of sacrifice on Day 2 (or Day 4), the large intestine is removed and the length and weight recorded. Sections of the colon are taken for histopathology scoring to determine disease severity.

PBMCs [1] = assay: Cell mitosis assay in PBMCs; type: cell-based; settings: Homo sapiens, PBMC, 5 μg/mL
Outline: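 Human PBMCs from healthy donors, density-gradient isolated, stimulated with 2% PHA 48 h, then exposed 20 h to test compounds; demecolcine 0.1 μg/mL added 2 h before harvest. Fixed/permeabilised cells stained for phospho-histone H3 and propidium iodide; mitotic lymphocytes counted by flow cytometry.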

[2] = Plasma pharmacokinetics in rats, single intravenous or oral administration; type: in vivo; settings: male, Wistar, rat; for clearance: rats, intravenous 0.25 mg/kg
Procedure: (§1) Studies were conducted by Sai Life Sciences (Hinjewadi, Pune, India) to investigate the plasma pharmacokinetics and total colon tissue distribution of compounds of the invention. In particular, pharmacokinetic studies were carried out in: • male C57BL/6 mice, following a single oral administration; and • male Wistar rats following a single intravenous or oral administration.

SCID animals = assay: Adoptive transfer in mice (CD45RBhigh cells into SCID animals); type: in vivo; settings: end of the study
Procedure: On Study day 0, female Balb/C mice are terminated and spleens obtained for CD45RB^high cell isolation (Using SCID IBD cell Separation protocol). Approximately 4×10^5 cells/mL CD45RB^high cells are then injected intraperitoneally (100 μL/mouse) into female SCID animals. On study day 14, mice are weighed and randomized into treatment groups based on body weight. On Day 14, compounds are administered BID, via oral gavage, in a peanut oil vehicle at the dose levels outlined below in Tables 6a and 6b and a dose volume of 5 mL/kg. Treatment continues until study day 42, at which point the animals are necropsied 4 hours after the morning administration. The colon length and weight are recorded and used as a secondary endpoint in the study as a measurement of colon oedema. The colon is then divided into six cross-sections, four of which are used for histopathology scoring (primary endpoint) and two are homogenised for cytokine analysis. Data shown is the % inhibition of the induction window between naïve animals and vehicle animals, where higher inhibition implies closer to the non-diseased, naïve, phenotype.

HT29 cells = assay: IL-1β-induced IL-8 release in HT29 cells; type: cell-based; settings: Homo sapiens, HT-29, assay (d), read-out: IC50 Values for Inhibition of Cytokine Release HT29 cells IL-8
Procedure: HT29 cells, a human colon adenocarcinoma cell line, are plated in a 96 well plate (24 hr) and pre-treated with compounds at the desired concentration for 2 hours before addition of 5 ng/mL of IL-1β (Abcam) for 24 hours. Supernatants are harvested for IL-8 quantification by Sandwich ELISA (Duo-set, R&D System). The IC50 is determined from the dose response curve.

PBMCs [3] = assay: IL-2 and IFN gamma release in CD3/CD28 stimulated PBMC cells; type: cell-based; settings: Homo sapiens, assay (c)
Outline: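 Healthy-donor PBMCs, density-gradient isolated, stimulated on plates pre-coated with anti-CD3 (0.3 μg/mL) and anti-CD28 (3 μg/mL) antibodies, with compound, for 3 days under standard culture conditions. IC50 derived from the dose-response curve.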

PBMCs [4] = assay: LPS-induced TNFα/IL-8 release in PBMC cells; type: cell-based; settings: Homo sapiens, assay (b), read-out: IC50 Values for Inhibition of Cytokine Release PBMCs IL-8
Outline: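 Healthy-donor PBMCs isolated by density gradient were pretreated with compound for 2 h, then stimulated with 1 ng/mL LPS (E. coli 0111:B4) for 24 h at 37° C., 5% CO2. IL-8 and TNFα in supernatants measured by sandwich ELISA.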

[5] = Plasma pharmacokinetics and total colon tissue distribution in mice, single oral administration; type: in vivo, C57BL/6 mice; settings: male, C57BL/6, mouse, 5 mg/kg, read-out: Median plasma concentration
Procedure: as §1

d-U937 cells = assay: LPS-induced TNFα/IL-8 release in d-U937 cells; type: cell-based; settings: Homo sapiens, dU937, assay (aa)
Procedure: U937 cells, a human monocytic cell line, are differentiated to macrophage-type cells by incubation with phorbol myristate acetate (PMA; 100 ng/mL) for 48 to 72 hr. Cells are pre-incubated with final concentrations of test compound for 2 hr and are then stimulated with 0.1 μg/mL of LPS (from E. Coli: 0111:B4, Sigma) for 4 hr. The supernatant is collected for determination of TNFα and IL-8 concentrations by sandwich ELISA (Duo-set, R&D systems). […] The relative 50% effective concentration (REC50) is determined from the resultant concentration-response curve. The inhibition of IL-8 production is calculated at each concentration of test compound by comparison with vehicle control.

Lewis rats = assay: Endotoxin-induced uveitis in rats; type: in vivo; settings: rats treated with intravitreal endotoxin LPS
Procedure: Male, Lewis rats (6-8 weeks old, Charles River UK Limited) are housed in cages of 3 at 19-21° C. with a 12 h light/dark cycle (07:00/19:00) and fed a standard diet of rodent chow and water ad libitum. Non-fasted rats are weighed, individually identified on the tail with a permanent marker, and receive a single intravitreal administration into the right vitreous humor (5 μL dose volume) of 100 ng/animal of LPS (Escherichia coli 0111:B4 prepared in PBS, Sigma Aldrich, UK) using a 32-gauge needle. Untreated rats are injected with PBS. Test compound, dexamethasone (Dex) or vehicle (20% hydroxypropyl-β-cyclodextrin, 0.1% HPMC, 0.01% Benzalkonium chloride, 0.05% EDTA, 0.7% NaCl in deionised water) are administered by the topical route onto the right eye (10 μL) of animals 30 minutes prior to LPS, at the time of LPS administration, and 1, 2 and 4 hours post LPS administration. Before administration, the solution or suspension to be administered is agitated for 5 minutes to ensure a uniform suspension. 6 hours after LPS dosing, animals are euthanized by overdose with pentobarbitone (i.v.). Following euthanasia, the right eye of each animal is enucleated and dissected into front (anterior) and back (posterior) sections around the lens. Each section is weighed and homogenised in 500 μL of sterile phosphate buffered saline followed by 20 minutes centrifugation at 12000 rpm at 4° C. The resulting supernatant is divided into 3 aliquots and stored at −80° C. until subsequent cytokine analysis by R&D DuoSet ELISA.

[6] = Hydrolytic stability study (DMSO/water 3:1, 60° C.); type: physicochemical
Procedure: Chemical stability of compounds of the invention was assessed in a mixture of DMSO and water (3:1) at a test compound concentration of 1 mg/mL
Agilent, Waters X-Select C18, 2.5 μm, 4.6×30 mm column, 4 min method, 5-95%
MeCN/water (0.1% formic acid).
Column Oven Temperature 40° C.
Sample Preparation • A 1.0 mg sample of test compound was dissolved in 750 μL of DMSO. Water (250 μL) was added slowly, ensuring no precipitation occurred.
Recording Stability • A 50 μL aliquot of the test solution was removed and analysed in duplicate by 5 μL HPLC injections. The peak area for the test compound was recorded following manual integration of the corresponding UV trace. • The test solution was heated to 60° C., with stirring, and 50 μL aliquots removed for HPLC analysis at 5 and 24 h timepoints.

[7] = system: Salmonella typhimurium TA100; assay: Bacterial reverse mutation screen, strain TA100; type: cell-based; settings: presence or absence of S-9 mix; up to 1000 μg/plate analysable
Procedure: (§2) Studies were conducted by Sequani (Ledbury, Herefordshire, UK) to assess compounds of the invention for their ability to induce mutations in two histidine dependent auxotrophic mutants of Salmonella typhimurium, strains TA98 and TA100 in vitro.
(§3) The mutation screen was conducted using the plate incorporation method and was performed in both the presence and absence of S-9 mix (a liver post-mitochondrial fraction derived from the livers of Aroclor 1254 treated rats). The bacteria were exposed to test compounds dissolved in dimethylsulphoxide, which solvent was also used as the negative control. The dose levels used were 0.32, 1.6, 8, 40, 200, 1000 or 5000 μg/plate.
(§4) Precipitation was also noted in both strains at 1000 μg/plate in the presence and absence of S-9 mix.

[8] = system: Salmonella typhimurium TA98; assay: Bacterial reverse mutation screen, strain TA98; type: cell-based; settings: presence or absence of S-9 mix; up to 1000 μg/plate analysable
Procedure: as §2, §3, §4

CYP2C9 = CYP2C9 (Homo sapiens (Human), UniProt P11712); assay: CYP2C9 inhibition studies; type: in vitro ADME; settings: inhibition at 5 μM reported instead of 15 μM (precipitation)
Procedure: Assessment of certain in vitro ADME (absorption, distribution, metabolism, and excretion) parameters for certain compounds of the invention was conducted by BioFocus (Saffron Walden, UK).

[9] = po, 5 mg/kg, read-out: Median plasma concentration
[10] = read-out: IC50 Values for Inhibition of Cytokine Release PBMCs IFNγ
[11] = read-out: IC50 Values for Inhibition of Cytokine Release PBMCs IL-2

Chain of CYP2C9 (P11712 whole entry): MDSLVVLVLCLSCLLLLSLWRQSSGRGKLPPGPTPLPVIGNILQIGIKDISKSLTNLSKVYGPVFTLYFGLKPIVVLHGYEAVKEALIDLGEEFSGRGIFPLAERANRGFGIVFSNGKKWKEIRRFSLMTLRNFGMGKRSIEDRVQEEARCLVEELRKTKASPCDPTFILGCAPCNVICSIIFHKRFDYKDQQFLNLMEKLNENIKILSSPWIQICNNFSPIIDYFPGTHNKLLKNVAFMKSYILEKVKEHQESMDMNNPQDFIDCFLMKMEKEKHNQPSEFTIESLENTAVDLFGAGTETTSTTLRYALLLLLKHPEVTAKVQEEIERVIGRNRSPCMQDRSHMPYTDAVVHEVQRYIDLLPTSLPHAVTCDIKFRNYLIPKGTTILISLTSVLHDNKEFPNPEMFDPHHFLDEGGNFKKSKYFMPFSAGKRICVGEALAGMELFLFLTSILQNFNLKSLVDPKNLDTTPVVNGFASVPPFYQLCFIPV

clearance [2] [mL/min/kg] | pIC50 (HT29 cells) | SMILES | activity in TNBS-induced colitis (histopathology analysis) (BDF1 mice) | inhibition at 5 µg/mL (PBMCs [1]) [%] | pIC50 (PBMCs [3]; [10]) | pIC50 (PBMCs [3]; [11]) | pIC50 (PBMCs [4]) | cytokine levels in the anterior and posterior segments of the eyes (Lewis rats) | other results
5.1 | 8.09 | COCCOCCOCCNC(=O)c1cc(Nc2cc(Oc3ccc(NC(=O)Nc4cc(C(C)(C)C)cc(NS(C)(=O)=O)c4OC)c4ccccc34)ccn2)cc(OC)c1 [Example 3, 3-((4-((4-(3-(5-(tert-Butyl)-2-methoxy-3-(methylsulfonamido)phenyl)ureido)naphthalen-1-yl)oxy)pyridin-2-yl)amino)-5-methoxy-N-(2-(2-(2-methoxyethoxy)ethoxy)ethyl)benzamide] | displayed substantial activity | 31.7 | 8.02 | 6.72 | 8.92 |  | concentration at 0.5 h [2, 9]: 0 ng/mL; concentration at 1 h [2, 9]: 0 ng/mL; concentration at 2 h [2, 9]: 0 ng/mL; concentration at 4 h [2, 9]: 0 ng/mL; concentration at 6 h [2, 9]: 0 ng/mL; concentration at 8 h [2, 9]: 0 ng/mL; concentration at 12 h [2, 9]: 0 ng/mL; concentration at 24 h [2, 9]: 0 ng/mL; activity in adoptive transfer model (ratios of colon weight to length) (SCID animals): displayed significant activity; concentration at 1 h [5]: 0 ng/mL; concentration at 2 h [5]: 0 ng/mL; concentration at 4 h [5]: 0 ng/mL; concentration at 8 h [5]: 0 ng/mL; concentration at 12 h [5]: 0 ng/mL; concentration at 24 h [5]: 0 ng/mL; pIC50 (d-U937 cells; method: relative to 10 μg/mL BIRB796 (REC50), read-out: IC50 Values for Inhibition of Cytokine Release dU937 cells TNFα): 9.40; pIC50 (d-U937 cells; read-out: IC50 Values for Inhibition of Cytokine Release dU937 cells IL-8): 8.89
14.2 | 9.22 | CNC(=O)c1cc(C(C)(C)C)cc(NC(=O)Nc2ccc(Oc3ccnc(Nc4cc(OC)cc(OCCOCCOCCOC)c4)c3)c3ccccc23)c1OC [Example 29, 5-(tert-Butyl)-2-methoxy-3-(3-(4-((2-((3-methoxy-5-(2-(2-(2-methoxyethoxy)ethoxy)-ethoxy)phenyl)amino)pyridin-4-yl)oxy)naphthalen-1-yl)ureido)-N-methylbenzamide] |  | 34.6 | 8.46 | 7.29 | 8.64 | significantly reduced | 
 | 7.79 | COc1cc(Nc2cc(Oc3ccc(NC(=O)Nc4cc(C(C)(C)C)cc(NS(C)(=O)=O)c4OC)c4ccccc34)ccn2)cc(C(=O)NCCCN2CCOCC2)c1 [Example 66, 3-((4-((4-(3-(5-(tert-Butyl)-2-methoxy-3-(methylsulfonamido)phenyl)ureido)naphthalen-1-yl)oxy)pyridin-2-yl)amino)-5-methoxy-N-(3-morpholinopropyl)benzamide] |  | 66.6 | 7.69 | 7.31 | 8.72 | significantly reduced | 
 |  | C#CC(C)(C)c1cc(NC(=O)Nc2ccc(Oc3ccnc(Nc4cc(C)c5[nH]ncc5c4)n3)c3ccccc23)n(-c2ccc(C)cc2)n1 [Ref Cpd A] |  |  |  |  |  |  | % Inh at 5 μM (CYP2C9; CYP2C9, 0 min preincubation): 31^[†] %; % Inh at 5 μM (CYP2C9; CYP2C9, 30 min preincubation): 66^[†] %

SMILES | clearance [2] [mL/min/kg] | pIC50 (HT29 cells) | activity in TNBS-induced colitis (histopathology analysis) (BDF1 mice) | inhibition at 5 µg/mL (PBMCs [1]) [%] | pIC50 (PBMCs [3]; [10]) | pIC50 (PBMCs [3]; [11]) | pIC50 (PBMCs [4]) | cytokine levels in the anterior and posterior segments of the eyes (Lewis rats) | other results
COc1c(NC(=O)Nc2ccc(Oc3ccnc(Nc4ccccc4)c3)c3ccccc23)cc(C(C)(C)C)cc1C(=O)NC1COC1 [Example 75, 5-(tert-Butyl)-2-methoxy-N-(oxetan-3-yl)-3-(3-(4-((2-(phenylamino)pyridin-4-yl)ox)-naphthalen-1-yl)ureido)benzamide] | 4.4 |  | displayed substantial activity | 42.6 | 7.83 | 7.25 | 8.30 | significantly reduced | % Parent Remaining ([6]; DMSO/water 3:1, 0 min): 100%; % Parent Remaining ([6]; DMSO/water 3:1, 60° C., 1440 min): 99%; increases in revertant colonies, strain TA100 [7]: no dose-related or statistically significant increases in revertant colonies; increases in revertant colonies, strain TA98 [8]: no dose-related or statistically significant increases in revertant colonies
